“Also recorded” adds a separate entry of the source.
Experiments:
[1] = tested on: MDA-MB-231 human breast cancer cells; assay: RNAseq of microRNAs and snoRNAs in MDA-MB-231 cancer cells; format: cell-based; details: MDA-MB-231 cells, compared to DMSO-treated cells
Protocol: The expression of various microRNAs and snoRNAs was evaluated following administration of AKB-6899 to MDA-MB-231 human breast cancer cells. In these cancer cells, AKB-6899 increased expression of several microRNAs, some of which target methylation regulators such as the DNMTs. AKB-6899 also regulated about 20 snoRNAs, some of which are known to guide methylation. Finally, the analysis identified over sixty (60) RNA transcripts in the AKB-6899 treated cancer cells, which transcriptions are yet to annotated. The AKB-6899 treated breast cancer cells were compared to DMSO-treated cancer cells.

DSP mRNA = DSP mRNA expression in lungs of normal mice; format: in vivo, mouse; details: i.p., three weeks (FIG. 14C)
Protocol: FIGS. 14A-14C show the effects of systemic administration of AKB-6899. Mice were treated three times per week for three weeks with either i.p. AKB-6899 or i.p. DMSO. The lungs were removed and assayed to determine DNMT mRNA expression, percent CpG methylation, and fold change in mRNA. […] The data was standardized to 1.0 by the DMSO levels of the respective gene expression, (n=4 lungs per condition).

DNMT-1 [2] = assay: DNMT-1 mRNA expression by RT-PCR in MDA-MB-231 tumor cells; format: cell-based, human; details: 25 μM, 24 hours, compared to DMSO (FIG. 1B)
Protocol: (§1) FIGS. 1A-1E show DNA methyltransferase mRNA expression in vitro and in vivo. […] PyMT tumor cells were left untreated, were treated with DMSO, or were treated with AKB-6899 (10, 25, or 50 μM) for 24 hours. The cells were subjected to Trizol extraction to recover total RNA. cDNA was synthesized for RT-PCR of DNMT-1 and DNMT-3a mRNA expression. […] Human MDA-MB-231 tumor cells were left untreated, were treated with DMSO, or were treated with AKB-6899 (25 μM) for 24 hours. Total RNA was isolated for RT-PCR. FIG. 1C (DNMT-1), FIG. 1D (DNMT-3a), and FIG. 1E (DNMT-3b) compare the effect of AKB-6899 with the effect of 5-aza-2′deoxycytidine (5-AZA) as assessed by RT-PCR in human cervical tumors implanted in mice that were either untreated (UTX), treated with DMSO, treated with 5-AZA, or treated with AKB-6899 (17.5 mg/kg).
To determine whether the decrease in DNMT expression and the increase in DSP expression were relevant in human cancer, the level of desmoplakin expression in MDA-MB-231 human triple negative breast cancer cells was determined. […] (FIG. 3B).

[3] = tested on: desmoplakin (DSP) gene promoter; assay: Methylation-specific PCR of DSP promoter in PyMT breast cancer cells; format: cell-based, mouse
Protocol: FIGS. 3A-3E show the effect of AKB-6899 (25 μM) on methylation of the desmoplakin (DSP) gene promoter in PyMT breast cancer cells (3A), human MDA-MB-231 triple negative breast cancer cells (3B), human C8161.9 melanoma cells (3C), and human MCF-7 breast cancer cells (3D). In FIG. 3A, the DSP promoter was 100% unmethylated (AKB-6899) vs. 99.99% methylated (vehicle). In FIG. 3B, the DSP promoter was 99.62% unmethylated (AKB-6899) v. 99.89% (vehicle). In FIG. 3C, the DSP promoter was 99.90% unmethylated (AKB-6899) v. 42.04% (vehicle). In FIG. 3D, the DSP promoter was 92.48% unmethylated (AKB-6899) v. 98.48% (vehicle). In FIG. 3E, when compared to the vehicle (DMSO), treatment of PyMT cells with AKB-6899 increased DSP expression.
(§2) Because DSP is regulated by ER/PR expression, and because late-stage PyMT tumors lose ER/PR-positivity and heavily metastasize to the lymph nodes and lungs (Lin et al., 2003), the effects of AKB-6899 on more global events that regulate gene expression was evaluated. PyMT tumor cells in culture were treated with DMSO or AKB-6899. Methylation-specific PCR for CpG islands in the desmoplakin promoter were performed. […] Trypan Blue confirmed no cell death in AKB-6899 treated cells when compared to control cells. The experiment was repeated and RNA was isolated from the cells. RT-PCR was performed and the regulation of DNA methyltransferases (DNMTs) was evaluated. […] (FIG. 1A). The decrease in mRNA levels of DNMT-1 and DNMT-3a increased the mRNA level of DSP (FIG. 4A) and increased desmoplakin protein expression (FIG. 5A).

c-Myc = c-Myc expression (relative copy number) in human cervical tumors in animals; format: in vivo; details: animal models of human cervical tumors, 17.5 mg/kg (FIG. 7B)
Protocol: Animal models of human cervical tumors were untreated, treated with DMSO, treated with 5-AZA or treated with AKB-6899 (17.5 mg/kg).

PyMT tumor cells = assay: Trypan Blue cell death check in PyMT tumor cells; format: cell-based; details: compared to control cells
Protocol: as §2

c-Myc promoter = assay: Percent CpG methylation of c-Myc promoter in HeLa cells; format: cell-based, human; details: 5 or 25 μM, compared to DMSO and PBA (FIG. 6A)
Protocol: HeLa cervical cancer cells were left untreated, were treated with DMSO, were treated with 5-AZA, were treated with AKB-6899 (5 or 25 μM), or were treated with PBA (2 mM).

DNMT-1 [4] = assay: DNMT-1 transcription in H1703 lung cancer cells; format: cell-based, human; details: H1703 cells in vitro, dose-dependent (FIG. 10A)
Excerpt: In FIG. 10A, AKB-6899 inhibited DNMT-1, DNMT-3a, and DNMT-3b transcription in a dose-dependent manner in human squamous cell carcinoma lung cancer cells (H1703), in vitro. The DMSO-treated DNMT mRNAs are over 1.0, meaning the level of expression is higher than the housekeeping control gene, CAP1. In FIG. 10B, AKB-6899 inhibited DNMT-3a and DNMT-3b transcription in human adenocarcinoma lung cancer cells (A549). The DMSO-treated DNMT mRNAs are under 1.0, meaning the level of expression is lower than the housekeeping control gene, CAP1.

DNMT-1 [5] = assay: DNMT-1 mRNA expression by RT-PCR in PyMT tumor cells; format: cell-based, mouse; details: for DNMT-1 mRNA expression: PyMT tumor cells, 24 hours, compared to DMSO (FIG. 1A)
Protocol: as §1, §2

O=C(O)CNC(=O)c1ncc(-c2cccc(F)c2)cc1O [AKB-6899, {[5-(3-Fluorophenyl)-3-hydroxypyridine-2-carbonyl]amino}acetic acid]
expression of microRNAs [1]: increased | DSP mRNA expression in lungs (DSP mRNA): increased | DNMT-1 mRNA expression (DNMT-1 [2]): significantly decreased; also recorded: downregulated | DSP promoter unmethylated ([3]; PyMT breast cancer cells, 25 μM (FIG. 3A)): 100% | desmoplakin promoter methylation after treatment ([3]; PyMT mouse breast cancer cells): 0.0% | methylation state of DSP promoter CpG islands (in words) ([3]; PyMT tumor cells in culture): entirely unmethylated; also recorded: near complete | c-Myc expression (c-Myc): inhibited | cell death by Trypan Blue (PyMT tumor cells): no cell death | demethylation of c-Myc promoter (percent CpG methylation) (c-Myc promoter): increase in demethylation | DNMT-1 transcription (DNMT-1 [4]): inhibited | DNMT-1 mRNA level (DNMT-1 [5]; PyMT tumor cells in culture, concentration not given): significant decreases; also recorded: downregulated | DNMT-1 mRNA expression (DNMT-1 [5]; 10 μM): significantly inhibited | DNMT-1 mRNA expression (DNMT-1 [5]; 25 μM): significantly inhibited | DNMT-1 mRNA expression (DNMT-1 [5]; 50 μM): significantly inhibited

Source: patent US20160199434A1, “COMPOSITIONS AND METHODS FOR MODULATING DNA METHYLATION” (OHIO STATE INNOVATION FOUNDATION, priority 2013, published 2016)
